Experimental data taken from patent publication US9708336B2, “Metallo-beta-lactamase inhibitors” (priority 2014, dated 2017).
Where two headings read alike, the source gives them in different places.

What was measured:
VIM-1 = VIM-1 (Pseudomonas aeruginosa (strain ATCC 15692 / DSM 22644 / CIP 104116 / JCM 14847 / LMG 12228 / 1C / PRS 101 / PAO1), UniProt A0A0F7KYQ8); experiment: Enzyme activity: determination of IC50, fluorescence assay with CCF2-FA substrate (VIM-1); type: biochemical
[1] = tested on: Serratia marcescens expressing IMP-1 (CL5741); experiment: Antibiotic potentiation activity: synergistic concentration (MITC95) with imipenem, OD600 growth; type: cell-based; conditions: 95% growth inhibition
Procedure, shortened: (§1)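 Clinical MBL-producing strains (E. coli NDM-1, S. marcescens IMP-1, K. pneumoniae VIM-1) from overnight plates were diluted 1:100 into 1.1×CAMHB. Compound was tested with imipenem at 4 μg/ml (optionally 1 μg/ml) or without it. After 22–24 h at 35 °C, growth was read as OD600.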

[2] = tested on: Escherichia coli expressing NDM-1 (CLB30016); experiment: as above; type: cell-based; conditions: 95% growth inhibition
Procedure, shortened: as §1

[3] = tested on: Klebsiella pneumoniae expressing VIM-1 (IHMA599644); experiment: as above; type: cell-based; conditions: 95% growth inhibition
Procedure, shortened: as §1

NDM-1 = NDM-1 (Klebsiella pneumoniae, UniProt C7C422); experiment: biochemical; type: biochemical; conditions: NDM-1 enzyme, read-out: NDM-1 IC50
IMP-1 = IMP-1 (Serratia marcescens, UniProt P52699); experiment: biochemical; type: biochemical; conditions: IMP-1 enzyme, read-out: IMP-1 IC50
[4] = VIM-1 enzyme, CCF2-FA fluorescence assay, read-out: VIM-1 IC50
[5] = Serratia marcescens expressing IMP-1 (CL5741)
[6] = Escherichia coli expressing NDM-1 (CLB30016)
[7] = Klebsiella pneumoniae expressing VIM-1 (IHMA599644)
[8] = VIM-1 enzyme, CCF2-FA substrate, read-out: VIM-1 IC50
[9] = Serratia marcescens CL5741 (IMP-1)
[10] = Klebsiella pneumoniae IHMA599644 (VIM-1)
[11] = VIM-1 IC50, VIM-1 enzyme, CCF2-FA substrate

IMP-1, sequence (P52699 whole entry, looked up): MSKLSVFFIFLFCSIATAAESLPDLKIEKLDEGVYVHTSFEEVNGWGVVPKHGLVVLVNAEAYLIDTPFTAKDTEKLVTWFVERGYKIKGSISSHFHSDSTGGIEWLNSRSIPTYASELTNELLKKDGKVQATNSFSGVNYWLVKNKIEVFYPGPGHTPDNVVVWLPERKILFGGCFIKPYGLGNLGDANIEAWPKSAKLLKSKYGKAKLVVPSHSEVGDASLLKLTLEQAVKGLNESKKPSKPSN
NDM-1, sequence (C7C422 whole entry, looked up, species assumed): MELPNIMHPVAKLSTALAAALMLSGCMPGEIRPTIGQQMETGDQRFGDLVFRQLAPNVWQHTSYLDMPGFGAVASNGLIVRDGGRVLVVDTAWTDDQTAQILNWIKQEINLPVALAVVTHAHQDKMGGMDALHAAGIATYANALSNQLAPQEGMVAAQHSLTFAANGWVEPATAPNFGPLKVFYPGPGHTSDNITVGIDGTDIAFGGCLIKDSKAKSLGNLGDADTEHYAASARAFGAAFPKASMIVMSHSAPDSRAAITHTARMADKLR

| Structure (SMILES) | IC50 (VIM-1; [4]) [nM] | Serratia marcescens MITC95 [1, 5] [µM] | Escherichia coli MITC95 [2, 6] [µM] | Klebsiella pneumoniae MITC95 [3, 7] [µM] | IC50 (NDM-1; CCF2-FA fluorescence assay) [nM] | IC50 (IMP-1; CCF2-FA fluorescence assay) [nM] | IC50 (VIM-1; [8]) [nM] | Serratia marcescens MITC95 [1, 9] [µM] | Escherichia coli MITC95 ([2]; (CLB30016, NDM-1)) [µM] | Klebsiella pneumoniae MITC95 [3, 10] [µM] | IC50 (NDM-1; CCF2-FA substrate) [nM] | IC50 (IMP-1; CCF2-FA substrate) [nM] | IC50 (VIM-1; [11]) [nM] |
| --- | --- | --- | --- | --- | --- | --- | --- | --- | --- | --- | --- | --- | --- |
| N#Cc1nc2c(-c3ccc(C(F)(F)F)c(S(N)(=O)=O)c3-c3nnn[nH]3)cccc2s1 [Example 483, 3-(2-Cyanobenzo[d]thiazol-4-yl)-2-(1H-tetrazol-5-yl)-6-(trifluoromethyl)benzenesulfonamide] | 0.216 | 25 | 6.25 | 12.5 | 0.755 | 2.12 | – | – | – | – | – | – | – |
| NS(=O)(=O)c1cccc(-c2cnc3ncccn23)c1-c1nnn[nH]1 [Example 647, 3-imidazo[1,2-a]pyrimidin-3-yl-2-(1H-tetrazol-5-yl)benzenesulfonamide] | – | – | – | – | – | – | 83.9 | 18.75 | 0.25 | 6.25 | 14.1 | 618 | – |
| N#Cc1cccc2ncc(-c3cccc(S(N)(=O)=O)c3-c3nnn[nH]3)n12 [Example 649, 3-(5-cyanoimidazo[1,2-a]pyridin-3-yl)-2-(1H-tetrazol-5-yl)benzenesulfonamide] | – | – | – | – | – | – | 12.8 | 3.125 | 2.344 | 12.5 | 2.87 | 48.4 | – |
| NS(=O)(=O)c1c(CC2CCNCC2(F)F)ccc(-c2ccc(C3CCNCC3)cc2)c1-c1nn[nH]n1 (stereo not drawn) [Example 465, 4-((3,3-difluoropiperidin-4-yl)methyl)-4′-(piperidin-4-yl)-2-(2H-tetrazol-5-yl)-[1,1′-biphenyl]-3-sulfonamide] | 1.64 | 3.125 | 3.125 | 12.5 | 2.7 | 3.31 | – | – | – | – | – | – | – |
| NS(=O)(=O)c1c(C(F)(F)F)ccc(N2CCCC(CCO)C2)c1-c1nnn[nH]1 (stereo not drawn) [Example 660, 3-[3-(2-hydroxyethyl)piperidin-1-yl]-2-(1H-tetrazol-5-yl)-6-(trifluoromethyl)benzenesulfonamide] | – | – | – | – | – | – | 1.31 | 0.3906 | 2.344 | 6.25 | 4.7 | 10.4 | – |
| NCC1(N)CCC(c2ccc(C(F)(F)F)c(S(N)(=O)=O)c2-c2nnn[nH]2)CC1 (stereo not drawn) [Example 497, 3-(4-Amino-4-(aminomethyl)cyclohexyl)-2-(1H-tetrazol-5-yl)-6-(trifluoromethyl)benzenesulfonamide] | – | – | – | – | – | – | – | 0.3906 | 0.5859 | 6.25 | 3.06 | 25.8 | 59.5 |
| CS(=O)(=O)C1CN(c2ccc(-c3cccc(S(N)(=O)=O)c3-c3nnn[nH]3)cn2)C1 [Example 631, 3-[6-(3-methylsulfonylazetidin-1-yl)-3-pyridyl]-2-(1H-tetrazol-5-yl)benzenesulfonamide] | – | – | – | – | – | – | 110 | 6.25 | 1.953 | 25 | 8.25 | 39.9 | – |
| Nc1ncc(-c2ccc(Br)c(S(N)(=O)=O)c2-c2nn[nH]n2)s1 [Example 424, 3-(2-aminothiazol-5-yl)-6-bromo-2-(2H-tetrazol-5-yl)benzenesulfonamide] | 32.7 | 1.563 | 0.7813 | 15.63 | 18.9 | 80.8 | – | – | – | – | – | – | – |
| NS(=O)(=O)c1c(C(F)(F)F)ccc(-c2ccc(C3CCCN3)cc2)c1-c1nnn[nH]1 (stereo not drawn) [Example 716, 4′-pyrrolidin-2-yl-2-(1H-tetrazol-5-yl)-4-(trifluoromethyl)biphenyl-3-sulfonamide] | – | – | – | – | – | – | – | 3.125 | 6.25 | 25 | 8.07 | 5.43 | 2.79 |
